The text below walks through data of US20240191273A1, “ANTHOCYANIN BIOPRODUCTION IN A CELL-FREE MANUFACTURING SYSTEM” (DEBUT BIOTECHNOLOGY, INC., priority 2021, published 2024).

SMILES strings stand for the structures.

Series [1] in a line: solubility of cyanidin in water. The class given is physicochemical.
Series [2] is described as follows: stability of cyanidin in solution. The class given is physicochemical.

On to `Oc1cc(O)c2cc(O)c(-c3ccc(O)c(O)c3)[o+]c2c1` [cyanidin], for which, in series [1], the solubility is 49 µg/mL. In addition, the stability in water entry in series [2] (in water at 49 mg/L) was “degrade within minutes”. Further, the “pH of highest stability” value in series [2] (pH of the solution) is reported as less than 5.0.

The term solubility denotes the concentration that dissolves in the medium under given conditions. Read a low solubility as a poorly soluble substance.
